Data published in patent US20120202837A1, “SPIROCYCLIC PIPERIDINE DERIVATIVES USEFUL AS RENIN INHIBITORS” (priority 2009, published 2012).

Columns and labels:
Human recombinant renin = molecular target: T1, Human recombinant renin (Homo sapiens, UniProt P00797); assay: Inhibition of human recombinant renin (buffer assay); type: biochemical; conditions: buffer: 50 mM MOPS pH 7.4, 100 pM renin, 6 μM fluorescent peptide, 37° C., 3 hours
T1 construct: purchased Proteos
T1 sequence (P00797 67-406): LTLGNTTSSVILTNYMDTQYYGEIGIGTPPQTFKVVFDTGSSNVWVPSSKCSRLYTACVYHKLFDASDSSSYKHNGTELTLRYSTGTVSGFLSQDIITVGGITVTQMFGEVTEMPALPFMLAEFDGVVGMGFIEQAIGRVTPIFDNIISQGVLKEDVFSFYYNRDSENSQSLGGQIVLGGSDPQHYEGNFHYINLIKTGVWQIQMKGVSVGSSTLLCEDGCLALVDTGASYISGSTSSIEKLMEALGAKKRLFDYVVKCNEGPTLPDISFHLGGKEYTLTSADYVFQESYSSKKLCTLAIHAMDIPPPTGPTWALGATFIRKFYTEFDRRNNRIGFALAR
Experimental: Human recombinant renin (Proteos) in 50 mM MOPS pH 7.4, 100 mM NaCl, 0.002% Tween 20 at a final concentration of 100 pM is incubated with inhibitors from a 50 fold concentrated DMSO solution and 6 μM of an internally-quench fluorescent peptide: DNP-Lys-His-Pro-Phe-His-Leu-Val-Ile-His-D,L-Amp (SEQ ID NO: 1); Paschalidou K. et al., Biochem J, 2004, 382, 1031). The reactions take place in a Costar 384 well black plate (#3573) at 37° C. for 3 hours. Fluorescence is measured at times 0 and 3 hours with a SpectraMax Gemini EM reader set at an excitation wavelength of 328 nm and at an emission wavelength of 388 nm. Background fluorescence at t=0 is subtracted from the measurement at t=3 hours. Inhibitory activity of the compounds is expressed as IC50.

Renin in human plasma = molecular target: T2, Renin in human plasma (Homo sapiens, UniProt P00797); assay: Inhibition of renin in human plasma; type: biochemical; conditions: human EDTA plasma, recombinant renin added at 1 nM, 6 μM substrate, 37° C., 1 hour
T2 construct: purchased Proteos; host or cells: added to human EDTA-collected plasma
T2 sequence (P00797 67-406): T1 sequence (P00797 67-406)
Experimental: Human EDTA-collected plasma is rapidly thawed in warm water and centrifuged at 2900 g for 15 minutes at 4° C. The supernatant is collected and recombinant renin (Proteos) is added at a final concentration of 1 nM. The plasma is transferred to a Costar black 384 well plate (#3573). Renin inhibitors are added from a 17.5 fold concentrated DMSO solution and pre-incubated at 37° C. for 10 minutes. The internally-quench fluorescent peptide QX1520™-Lys-His-Pro-Phe-His-Leu-Val-Ile-His-Lys (5-FAM) (Anaspec) is diluted in 3M Tris pH 7.2, 200 mM EDTA and added to the plasma. The final concentrations are: 6 μM substrate, 342 mM Tris, 23 mM EDTA. The plate is incubated at 37° C. for 1 hour. The plate is read in a SpectraMax Gemini EM reader set at an excitation wavelength of 490 nm and an emission wavelength of 520 nm at times 0 and 1 hour. Background fluorescence at t=0 is subtracted from the measurement at t=1 hour. Inhibitory activity of the compounds is expressed as IC50.

Structure (SMILES)	IC50 (Human recombinant renin) [nM]	IC50 (Renin in human plasma) [nM]
COCCCc1ccccc1-c1ccc([C@@H]2CNCC[C@]23OCc2cn(C)c(=O)cc23)c(C)c1 (racemic) [Example 5, rac-(1R,3′S)-3′-[2′-(3-Methoxypropyl)-3-methyl-4-biphenylyl]-5-methyl-3,5-dihydro-6H-spiro[furo[3,4-c]pyridine-1,4′-piperidin]-6-one]	1.6	18
CC(=O)NCCc1ccccc1-c1ccc([C@@H]2CNCC[C@]23OCc2cc(F)c(F)cc23)c(C)c1 (racemic) [Example 4, rac-N-(2-{4′-[(1R,3′S)-5,6-Difluoro-3H-spiro[2-benzofuran-1,4′-piperidin]-3′-yl]-3′-methyl-2-biphenylyl}ethyl)acetamide]	0.2	1.4
CC(=O)NCCc1ccccc1-c1onc([C@H]2CNCC[C@@]23OCc2cc(F)c(F)cc23)c1Br [Example 13, N-[2-(2-(4-Bromo-3-[(1R,3′R)-5,6-difluoro-3H-spiro[2-benzofuran-1,4′-piperidin]-3′-yl]-5-isoxazolyl)phenyl)ethyl]acetamide]	0.26	1
Cc1cc(-c2ccccc2CCNC(=O)CO)ccc1[C@H]1CNCC[C@@]12OC(=O)c1cc(F)c(F)cc12 [Example 11, N-(2-{4′-[(1R,3′S)-5,6-Difluoro-3-oxo-3H-spiro[2-benzofuran-1,4′-piperidin]-3′-yl]-3′-methyl-2-biphenylyl}ethyl)-2-hydroxyacetamide]	0.66	0.82
